The source of these data is patent US6864249B2, “Piperidine and azetidine thrombin inhibitors” (LG Life Sciences, Ltd., priority 1998, dated 2005).

Structures can show the parent of a compound that is named as a salt. Where two headings read alike, the source gives them in different places.

Data set [1] addresses T1, Thrombin prepared from human plasma (Homo sapiens, UniProt P00734).
T1 construct: Thrombin used in this test was prepared from human plasma; from tissue; host or cells: human plasma
Briefly: In vitro enzyme assay for thrombin inhibition constants (Chromozym TH substrate, Dixon plot). The format is biochemical. The settings on record: pH 7.8, room temperature. On the procedure:
In vitro Enzyme Assays for Determining Inhibition Constants
The activity of thrombin was measured spectrophotometrically using tosyl-Gly-Pro-Arg-p-nitroanilide acetate (Chromozym TH, Boehringer Mannheim) as a substrate. […] Each compound was dissolved in DMSO to make a 1 mM stock solution and dilutions were made thereof with assay buffer (0.1 M Tris HCl, 0.15 M NaCl, 0.1% polyethylene glycol 8000, pH 7.8). Different concentrations of inhibitor were mixed with […] of thrombin in 0.8 mL of the buffer. The mixture was incubated for 10 min at room temperature before adding 0.2 mL of the substrate to a final concentration of 20 μM. […] A graph for the reciprocal value of initial velocity to the inhibitor concentration was derived from progress curves by fitting the data using a linear regression program.

The nature of data set [2]: Pharmacokinetic study for oral bioavailability in rats. The class given is in vivo, Male Sprague-Dawley rats. Particulars: oral dosing in rats, 30 mg/kg. The procedure: Pharmacokinetic Studies for Determining Oral Bioavailability
Male Sprague-Dawley rats (250-300 g) were restrained individually in a surgical plate (Dae Jong Instrument Company, Seoul, Korea) as supine position. The femoral artery and the femoral vein (iv only) of rats were cannulated with polyethylene tubing (PE-50, Clay Adams, Parsippany, N.J., USA) under light ether anesthesia. After complete recovery from anesthesia, rats were given 30 mg/kg of test compound dissolved in distilled water via oral gavage or given 10 mg/kg via the femoral vein for intravenous (iv) study. Blood samples (0.25 mL) were collected from the femoral artery at 0 (for control), 1 (iv only), 5, 15, 30, 60, 90 (iv only), 120, 180, and 240 min after dosing.
Blood samples were taken into heparinized tube (25 U/mL), deproteinized with 2 volumes of methanol, and centrifuged. The resulting supernatant (60 μL) was analyzed by HPLC eluting with a mixture of 0.1% trifluoroacetic acid aqueous solution and acetonitrile with a ratio of 81% to 19%. Plasma concentration of test compound was recorded and used to calculate the pharmacokinetic parameters: maximum plasma concentration of test compound (Cmax), time of maximum plasma concentration (Tmax) area under the curve (AUC), and fraction of test compound absorbed (F).
Table 2 illustrates the pharmacokinetic results for some exemplary compounds of invention obtained upon oral dosing in rats.

The mark [3] stands for this setting: male, Sprague-Dawley, rat, plasma.
Setting [4] is: male, Sprague-Dawley, rat, plasma, read-out: AUC (converted).
Where [5] appears, read: male, Sprague-Dawley, rat, plasma, read-out: Cmax.

`CS(=O)(=O)N[C@@H](C(=O)N1CCC[C@H]1C(=O)NCc1ccc(CN)s1)C(c1ccccc1)c1ccccc1` [Example 5, N-methylsulfonyl-D-diphenylalanyl-L-prolyl-[(5-aminomethyl-2-thienyl)methyl]amide.TFA]: in data set [1], the affinity, expressed as Ki, was 5.8 nM. The Tmax in data set [2] (setting [3]) is 32 min. In addition, in data set [2] (setting [4]), the exposure (AUC) is 4670 ng·h/mL. Besides, in data set [2] (setting [5]), the Cmax was determined as 1800 ng/mL.

`COC(=O)N[C@@H](C(=O)N1CCC[C@H]1C(=O)NCc1ccc(C(=N)N)s1)C(c1ccccc1)c1ccccc1` [Example 8, N-methoxycarbonyl-D-diphenylalanyl-L-prolyl-[(5-amidino-2-thienyl)methyl]amide.TFA] registered an inhibition constant (Ki) in data set [1] of 0.014 nM. Also, in data set [2] (setting [3]), the Tmax was 60 min. Also, the AUC in data set [2] (setting [4]) was 26900 ng·h/mL. For the same compound, in data set [2] (setting [5]), the Cmax was 9600 ng/mL. Regarding `COC(=O)N[C@@H](C(=O)N1CCC[C@H]1C(=O)NCc1cc(C(=N)N)cs1)C(c1ccccc1)c1ccccc1` [Example 14, N-methoxycarbonyl-D-diphenylalanyl-L-prolyl-[(4-amidino-2-thienyl)methyl]amide.TFA], the Tmax in data set [2] (setting [3]) is 80 min. In data set [2] (setting [5]), the Cmax was 4500 ng/mL. In addition, the area under the curve (AUC) in data set [2] was determined as 14200 ng·h/mL. The compound `CS(=O)(=O)N[C@H](CC1CCCCC1)C(=O)N1CCC[C@H]1C(=O)NCc1ccc(C(=N)N)s1` [Example 22, N-methylsulfonyl-D-cyclohexylalanyl-L-prolyl-[(5-amidino-2-thienyl)methyl]amide.TFA] gave a Ki in data set [1] of 0.02 nM. On to `N=C(N)c1ccc(CNC(=O)[C@@H]2CCCN2C(=O)[C@@H](CC2CCCCC2)NS(=O)(=O)Cc2ccccc2)s1` [Example 23, N-benzylsulfonyl-D-cyclohexylalany-L-prolyl-[(5-amidino-2-thienyl)methyl]amide.TFA], for which the inhibition constant (Ki) in data set [1] was 0.03 nM. For the compound `N=C(N)c1ccc(CNC(=O)[C@@H]2CCCN2C(=O)[C@@H](CC2CCCCC2)NS(=O)(=O)NC2CCCCC2)s1` [Example 24, N-cyclohexylsulfamoyl-D-cyclohexylalanyl-L-prolyl-[(5-amidino-2-thienyl)methyl]amide.TFA], in data set [1], the affinity, expressed as Ki, was 0.024 nM. With `CNS(=O)(=O)N[C@H](CC1CCCCC1)C(=O)N1CCC[C@H]1C(=O)NCc1ccc(C(=N)N)s1` [Example 25, N-methylsulfamoyl-D-cyclohexylalanyl-L-prolyl-[(5-amidino-2-thienyl)methyl]amide.TFA], the inhibitory constant (Ki) in data set [1] turned out to be 0.053 nM. In data set [1], `CS(=O)(=O)N[C@@H](C(=O)N1CCC[C@H]1C(=O)NCc1csc(C(=N)N)c1)C1CCCCC1` [Example 26, N-methylsulfonyl-D-cyclohexylglycinyl-L-prolyl-[(5-amidino-3-thienyl)methyl]amide.TFA] yielded a Ki of 4.6 nM. In data set [1], `COC(=O)N[C@@H](C(=O)N1CCC[C@H]1C(=O)NCc1csc(C(=N)N)c1)C1CCCCC1` [Example 27, N-methoxycarbonyl-D-cyclohexylglycinyl-L-prolyl-[(5-amidino-3-thienyl)methyl]amide.TFA] displayed a Ki of 13.7 nM. `CC(C)(C)OC(=O)CN[C@@H](C(=O)N1CCC[C@H]1C(=O)NCc1ccc(C(=N)N)s1)C(c1ccccc1)c1ccccc1` [Example 28, N-(t-butoxycarbonyl)methyl-D-diphenylalanyl-L-prolyl-[(5-amidino-2-thienyl)methyl]amide.2AcOH]: in data set [1], affinity was put at a Ki of 0.062 nM. Turning to `CN(CC(=O)O)[C@@H](C(=O)N1CCC[C@H]1C(=O)NCc1ccc(C(=N)N)s1)C(c1ccccc1)c1ccccc1` [Example 30, N-methyl-N-carboxymethyl-D-diphenylalanyl-L-prolyl-[(5-amidino-2-thienyl)methyl]amide.2TFA], in data set [1], the affinity, expressed as Ki, was 0.003 nM. In data set [1], `N=C(N)c1ccc(CNC(=O)[C@@H]2CCCN2C(=O)[C@H](NS(=O)(=O)O)C(c2ccccc2)c2ccccc2)s1` [Example 31, N-hydroxysulfonyl-D-diphenylalanyl-L-prolyl-[(5-amidino-2-thienyl)methyl]amide.TFA] yielded a Ki of 0.1 nM. `CS(=O)(=O)N[C@@H](C(=O)N1CC[C@H]1C(=O)NCc1ccc(C(=N)N)s1)C(c1ccccc1)c1ccccc1` [Example 32, N-methylsulfonyl-D-diphenylalanyl-L-azetidine-2-carboxyl-[(5-amidino-2-thienyl)methyl]amide.TFA] displayed an inhibition constant (Ki) in data set [1] of 0.053 nM.

`Cc1sc(CNC(=O)[C@@H]2CCCN2C(=O)[C@H](NS(C)(=O)=O)C(c2ccccc2)c2ccccc2)cc1C(=N)N` [Example 33, N-methylsulfonyl-D-diphenylalanyl-L-prolyl-[(4-amidino-5-methyl-2-thienyl)methyl]amide.TFA] came in with a Ki in data set [1] of 0.12 nM.

In data set [1], `CS(=O)(=O)N[C@@H](C(=O)N1CCC[C@H]1C(=O)NCc1ccc(C(=N)N)o1)C(c1ccccc1)c1ccccc1` [Example 34, N-methylsulfonyl-D-diphenylalanyl-L-prolyl-[(5-amidino-2-furanyl)methyl]amide.TFA] displayed a Ki of 1.4 nM.

Compound `COC(=O)N[C@@H](C(=O)N1CCC[C@H]1C(=O)NCc1ccc(C(=N)N)o1)C(c1ccccc1)c1ccccc1` [Example 35, N-methoxycabonyl-D-diphenylalanyl-L-prolyl-[(5-amidino-2-furanyl)methyl]amide.TFA] registered a Ki in data set [1] of 4.6 nM. Further, in data set [2] (setting [3]), the time to peak (Tmax) was 45 min. The AUC in data set [2] (setting [4]) is 16100 ng·h/mL. The Cmax in data set [2] (setting [5]) is 7100 ng/mL. The compound `N=C(N)c1csc(CNC(=O)[C@@H]2CCCN2C(=O)[C@H](NS(N)(=O)=O)C(c2ccccc2)c2ccccc2)n1` [Example 37, N-aminosulfonyl-D-diphenylalanyl-L-prolyl-[(4-amidino-2-thiazolyl)methyl]amide.TFA] registered an inhibitory constant (Ki) in data set [1] of 0.12 nM. `Cn1c(CNC(=O)[C@@H]2CCCN2C(=O)[C@H](NS(C)(=O)=O)C(c2ccccc2)c2ccccc2)ccc1C(=N)N` [Example 38, N-methylsulfonyl-D-diphenylalanyl-L-prolyl-[(5-amidino-1-methyl-2-pyrrolyl)methyl]amide.TFA]: in data set [1], affinity was put at a Ki of 0.23 nM. In the case of `N=C(N)c1cc(CNC(=O)[C@@H]2CCCN2C(=O)[C@H](NCC(=O)O)C(c2ccccc2)c2ccccc2)cs1` [Example 39, N-carboxymethyl-D-diphenylalanyl-L-prolyl-[(5-amidino-3-thienyl)methyl]amide.2TFA], the Tmax in data set [2] (setting [3]) was 15 min. Also, in data set [2], the AUC turned out to be 3530 ng·h/mL and the highest concentration (Cmax) was 4600 ng/mL.

On to `CC(C)(C)OC(=O)N[C@@H](C(=O)N1CCC[C@H]1C(=O)NCc1ccc(C(N)=NN)s1)C(c1ccccc1)c1ccccc1` [Example 42, N-Boc-D-Diphenylalanyl-L-prolyl-[(5-amidrazono-2-thienyl)methyl]amide.TFA], for which, in data set [1], affinity was put at a Ki of 84 nM. With `NN=C(N)c1ccc(CNC(=O)[C@@H]2CCCN2C(=O)[C@H](N)C(c2ccccc2)c2ccccc2)s1` [Example 43, D-diphenylalanyl-L-prolyl-[(5-amidrazono-2-thienyl)methyl]amide.2TFA], the affinity in data set [1] corresponds to a Ki of 9.1 nM. With `CS(=O)(=O)N[C@H](Cc1ccccc1)C(=O)N1CCC[C@H]1C(=O)NCc1ccc(C(N)=NN)s1` [Example 44, N-methylsulfonyl-D-phenylalanyl-L-prolyl-[(5-amidrazono-2-thienyl)methyl]amide.TFA], in data set [1], the Ki was found to be 395 nM.
